In patent US20230293475A1, “METHODS OF PROVIDING SO[…] TO SUBJECTS WITH IMPAIRED RENAL FUNCTION” (Axsome Malta Ltd., priority 2020, published 2023):
Where two headings read alike, the source gives them in different places.

Assays:
[1] = Phase 1 single-dose study, urinary excretion of solriamfetol; assay type: in vivo, human; details: for Fe(0-48), fraction of the dose excreted unchanged in urine in 48 hours, mean ± SD (%CV) / CL renal: single 75-mg dose; for cumulative amount excreted in urine: Group 5 ESRD, 1 participant; for CL renal: both sexes, human, urine, oral, 75 mg, read-out: CLR, renal clearance, mean ± SD (%CV) (converted)
Description: (§1) Groups 1-4 received one dose of solriamfetol HCl (89.3 mg; equivalent to 75-mg solriamfetol) on day 1; Group 5 received one dose equivalent to 75-mg dose on day 1 followed by 4-hour hemodialysis (designated Group 5.2), and one dose equivalent to 75-mg solriamfetol on day 8 without hemodialysis (designated Group 5.1). All doses were administered on an empty stomach following an overnight fast except for participants in Group 5, who received a standardized snack on day 7 and breakfast early on day 8 before starting an 8-hour fast. Participants remained fasting for 4 hours after administration, with water allowed except for 1 hour before and after dosing.
Urine samples were collected predose and for the time intervals of 0-4, 4-8, 8-12, 12-24, and 24-48 hours in Groups 1-3, with additional collection for the 48-72 hour time interval in Groups 4 and 5. During the hemodialysis period on day 1 for Group 5, dialysate samples and pre- and post-dialyzer paired blood samples were collected at pre-dialysis (2 hours), and at 3, 4, 5, and 6 hours following dosing. Urine and dialysate samples were aliquoted into polypropylene tubes for freezing and storage at -70° C. until analysis. All blood, urine, and dialysate samples were shipped on dry ice to a central bioanalytical laboratory.
Bioanalytical analyses were performed by a central laboratory (KCAS, LLC, Shawnee, Kansas) using validated proprietary methods that included extraction/derivatization and liquid chromatography-tandem mass spectrometry (LC-MS/MS). Measurement of solriamfetol was over the linear range of 8.42 to 4,210 ng/mL in plasma, 0.21 to 84.2 µg/mL in urine, and 1.68 to 842 ng/mL in dialysate. Solriamfetol was removed from dialysate samples with use of the Fresenius Optiflux F180NR dialyzer (Fresenius Medical Care, Waltham, Massachusetts). Assay performance was monitored by spiking blank interference free human plasma with positive controls and internal standards to generate standard curve and quality control samples. After derivatization, samples were chromatographed on a C8 reversed phase analytical HPLC (high-performance liquid chromatography) column, with subsequent monitoring using an API4000 LC-MS/MS unit (Sciex, Framingham, Massachusetts). Quantification was based on setting a calibration graph using the internal standard method. Coefficients of variation (CVs) for quality control samples were 3.2% to 6.0% for the plasma samples, 1.6% to 5.6% for the urine samples, and 3.5% to 7.1% for the dialysate samples.
The following plasma PK parameters were evaluated using non-compartmental analysis in Phoenix® WinNonlin® Version 6.3: Cmax; time to reach Cmax following drug administration (tmax); t½; area under the plasma concentration-time curve from time zero to time of last quantifiable concentration (AUCt); AUC from time zero to infinity (AUC∞); apparent total clearance of the drug from plasma after oral administration (CL/F); and apparent volume of distribution (Vd/F). The PK parameters for solriamfetol in urine included the amount of unchanged drug excreted in urine (Ae) over 48 or 72 hours; the fraction of the dose excreted unchanged in urine (Fe); and renal clearance of the drug (CLR). For participants on hemodialysis (Group 5), the additional PK parameters included the amount of solriamfetol cleared by the 4-hour hemodialysis (Adial); the fraction of dose removed by the 4-hour hemodialysis (Fdial); and hemodialysis clearance (CLdial) calculated as CLdial = Adial/AUCdial where AUCdial is the area under the pre-dialyzer plasma concentration-time curve during the hemodialysis period.

[2] = Phase 1 single-dose study, safety (treatment-emergent adverse events); assay type: in vivo, human
Description: In healthy subjects with normal renal function, solriamfetol HCl is renally excreted ~90% unchanged within 48 hours of administration. Thus, renal impairment, as well as hemodialysis in individuals with end-stage renal disease (ESRD), could affect the PK of solriamfetol HCl. To ascertain the precise impact of renal impairment and hemodialysis on pharmacokinetics and safety of solriamfetol RCl, a Phase 1, parallel-group, open-label, single-dose study was conducted at 2 U.S. sites. The protocol was approved by the IntegReview Institutional Review Board (Austin, Texas), and the study was conducted in compliance with the protocol, the Guideline for Good Clinical Practice E6; the US Code of Federal Regulations pertaining to conduct and reporting of clinical studies; the Clinical Trials Directive of the European Medicines Agency (Directive 2001/20/EC); and the Declaration of Helsinki. Written informed consent was obtained from each subject before enrollment in the study and before performance of any study-related procedure. See, also, Zomorodi K, Chen D, Lee L, Lasseter K, Marbury T. An Open-Label, Single-Dose, Phase 1 Study of the Pharmacokinetics and Safety of JZP-110 in Subjects With Normal or Impaired Renal Function and With End-Stage Renal Disease Requiring Hemodialysis [abstract]. Sleep. 2017;40 (suppl):A382-383.
Eligible participants were assigned to 1 of 5 groups according to renal disease status as measured by the estimated glomerular filtration rate (eGFR) on the day prior to dosing, calculated using the Modification in Diet in Renal Disease equation. Group 1 consisted of healthy participants with normal renal function (eGFR ≥ 90 mL/min/1.73 m^2) and served as the control group. Groups 2, 3, and 4 had mild, moderate, and severe renal impairment based on eGFRs of 60-89, 30-59, and < 30 mL/min/1.73 m^2, respectively. Group 5 consisted of participants with ESRD who required ≥ 3 hemodialysis treatments per week for the preceding 3 months. […] Group 1 was enrolled last to facilitate matching the mean age, BMI, and sex distribution of Groups 2-5.
as §1

[3] = Group 3 moderate renal impairment
[4] = Group 4 severe renal impairment
[5] = Group 1 normal renal function (n = 6), single 75-mg dose
[6] = Group 2 mild renal impairment (n = 6), single 75-mg dose
[7] = Group 3 moderate renal impairment (n = 6), single 75-mg dose
[8] = Group 4 severe renal impairment (n = 6), single 75-mg dose
[9] = Group 5.1 ESRD without hemodialysis (n = 6), single 75-mg dose
[10] = Group 5.2 ESRD with hemodialysis (n = 7), single 75-mg dose

## NC(=O)OC[C@H](N)Cc1ccccc1 [solriamfetol, [R]-2-amino-3-phenylpropylcarbamate]
[1]; Group 1 normal renal function
  Fe(0-48), fraction of the dose excreted unchanged in urine in 48 hours, mean ± SD (%CV): 85.8%
  CL renal: 283 mL/min
[1]; Group 2 mild renal impairment
  Fe(0-48), fraction of the dose excreted unchanged in urine in 48 hours, mean ± SD (%CV): 80.0%
  CL renal: 155 mL/min
[1]; [3]
  Fe(0-48), fraction of the dose excreted unchanged in urine in 48 hours, mean ± SD (%CV): 66.4%
  CL renal: 96.7 mL/min
[1]; [4]
  Fe(0-48), fraction of the dose excreted unchanged in urine in 48 hours, mean ± SD (%CV): 57.1%
  CL renal: 63.3 mL/min
[1]; with hemodialysis
  cumulative amount excreted in urine: 42.1%
[1]; without hemodialysis
  cumulative amount excreted in urine: 52.9%
[1]; severe renal impairment
  mean percentage of dose recovered in urine as unchanged drug over 72 hours: 64.0%
[2]; 1 participant, Group 5, 6 days after dosing, reference range 8-40 IU/L
  aspartate aminotransferase (AST), increase to: 66 IU/L
[2]; 1 participant, Group 5, 6 days after dosing, reference range 8-54 IU/L
  alanine aminotransferase (ALT), increase to: 144 IU/L
[2]; [5]
  ALT increased, number (%) of participants: 0
  AST increased, number (%) of participants: 0
  Any TEAE, number (%) of participants: 0
  Headache, number (%) of participants: 0
  Nausea, number (%) of participants: 0
  Skin abrasion, number (%) of participants: 0
[2]; [6]
  ALT increased, number (%) of participants: 0
  AST increased, number (%) of participants: 0
  Any TEAE, number (%) of participants: 1 (17%)
  Headache, number (%) of participants: 0
  Nausea, number (%) of participants: 0
  Skin abrasion, number (%) of participants: 1 (17%)
[2]; [7]
  ALT increased, number (%) of participants: 0
  AST increased, number (%) of participants: 0
  Any TEAE, number (%) of participants: 1 (17%)
  Headache, number (%) of participants: 1 (17%)
  Nausea, number (%) of participants: 0
  Skin abrasion, number (%) of participants: 0
[2]; [8]
  ALT increased, number (%) of participants: 0
  AST increased, number (%) of participants: 0
  Any TEAE, number (%) of participants: 0
  Headache, number (%) of participants: 0
  Nausea, number (%) of participants: 0
  Skin abrasion, number (%) of participants: 0
[2]; [9]
  ALT increased, number (%) of participants: 0
  AST increased, number (%) of participants: 0
  Any TEAE, number (%) of participants: 1 (17%)
  Headache, number (%) of participants: 0
  Nausea, number (%) of participants: 1 (17%)
  Skin abrasion, number (%) of participants: 0
[2]; [10]
  ALT increased, number (%) of participants: 1 (14%)
  AST increased, number (%) of participants: 1 (14%)
  Any TEAE, number (%) of participants: 1 (14%)
  Headache, number (%) of participants: 0
  Nausea, number (%) of participants: 0
  Skin abrasion, number (%) of participants: 0
[2]; all groups, 31 participants (13%)
  participants reporting treatment-emergent adverse events, total: 4
[2]; all groups, single 75-mg dose
  deaths or other serious AEs: no deaths or other serious AEs
  severity of all TEAEs as considered by the investigator: mild
  vital sign and ECG measurements: No clinically significant abnormal findings
